Values quoted from earlier work as cited in patent US20230088267A1, “Dual chamber electronic nicotine delivery system with puff duration control and timed lockout and just-in-time adaptive intervention to treat nicotine dependence in cigarette smokers” (Virginia Commonwealth University, priority 2021, published 2023).

For `CN1CCC[C@H]1c1cccnc1` [nicotine, L-nicotine], the “pka of the second nitrogen atom, located in the aromatic pyridine moiety” value (pyridine nitrogen, protonated under acidic conditions) is given as 3.10 and the “pka of the nitrogen atom in the pyrrolidine moiety” value (pyrrolidine nitrogen, basic) is given as 8.01.
